From ChEMBL document CHEMBL4834489 (ACS Med Chem Lett, 2021)

What was measured:
[1] = Clearance in human liver microsomes at 1 uM followed by NADPH addition measured up to 60 mins by LC-MS/MS analysis relative to hepatic blood flow; assay type: ADME, Microsome; details: read-out: CLH
[2] = Clearance in human hepatocytes at 1 uM measured up to 6 hrs by LC-MS/MS analysis relative to hepatic blood flow; assay type: ADME, cell-based, Hepatocyte; details: read-out: CLH

Cc1c(C(=O)NCC(F)F)sc2ncn(Cc3nc(C[C@H](O)c4ccc(Cl)cc4)no3)c(=O)c12
hepatic extraction ratio at 1 h, 1 µM [1]: 0.24 | hepatic extraction ratio at 6 h, 1 µM [2]: 0.36

Cc1c(C(N)=O)sc2ncn(Cc3nc(C[C@H](O)c4cc(F)cc(F)c4)no3)c(=O)c12
hepatic extraction ratio at 1 h, 1 µM [1]: < 0.23 | hepatic extraction ratio at 6 h, 1 µM [2]: 0.23

NC(=O)c1sc2ncn(Cc3nc(C[C@H](O)c4ccc(Cl)cc4)no3)c(=O)c2c1Cl
hepatic extraction ratio at 1 h, 1 µM [1]: < 0.23 | hepatic extraction ratio at 6 h, 1 µM [2]: 0.39

Cc1c(C(N)=O)sc2ncn(Cc3nc(C[C@H](O)c4ccc(Cl)cc4)no3)c(=O)c12
hepatic extraction ratio at 1 h, 1 µM [1]: 0.29 | hepatic extraction ratio at 6 h, 1 µM [2]: 0.25

Cc1c(C(=O)NCC(C)(C)O)sc2ncn(Cc3nc(C[C@H](O)c4ccc(Cl)cc4)no3)c(=O)c12
hepatic extraction ratio at 1 h, 1 µM [1]: < 0.23 | hepatic extraction ratio at 6 h, 1 µM [2]: 0.18

CNC(=O)c1sc2ncn(Cc3nc(C[C@H](O)c4ccc(Cl)cc4)no3)c(=O)c2c1C
hepatic extraction ratio at 1 h, 1 µM [1]: < 0.23 | hepatic extraction ratio at 6 h, 1 µM [2]: 0.29

Cc1c(C(N)=O)sc2ncn(Cc3nc(C[C@H](O)c4cc5ccccc5o4)no3)c(=O)c12
hepatic extraction ratio at 1 h, 1 µM [1]: < 0.23 | hepatic extraction ratio at 6 h, 1 µM [2]: 0.36

Cc1c(C(N)=O)sc2ncn(Cc3nc(C[C@H](O)c4ccc5c(c4)OCO5)no3)c(=O)c12
hepatic extraction ratio at 1 h, 1 µM [1]: < 0.23 | hepatic extraction ratio at 6 h, 1 µM [2]: 0.24

O=C1NCCc2c1sc1ncn(Cc3nc(C[C@H](O)c4ccc(Cl)cc4)no3)c(=O)c21
hepatic extraction ratio at 1 h, 1 µM [1]: < 0.23 | hepatic extraction ratio at 6 h, 1 µM [2]: 0.31

CNC(=O)c1sc2ncn(Cc3nc(C[C@H](O)c4ccc5c(c4)OCO5)no3)c(=O)c2c1C
hepatic extraction ratio at 1 h, 1 µM [1]: 0.29 | hepatic extraction ratio at 6 h, 1 µM [2]: 0.24
